Like-named read-outs stand apart in the source and are kept apart here.
Molecular target: T1, TYK2 (Homo sapiens, UniProt P29597)
T1 construct: Degradation of TYK2 in cells was quantitatively measured using Meso Scale Discovery (MSD) technology; endogenous in cells; host or cells: OCI-LY10
Experiment: TYK2 MSD degradation in OCI-LY10 cells
Format: cell-based
Settings: 4 to 24 hours incubation; for DC50: read-out: TYK2 MSD OCI-LY10 Rel-DC50
Procedure: Example 7. TYK2 MSD Degradation
Degradation of TYK2 in cells was quantitatively measured using Meso Scale Discovery (MSD) technology. OCI-LY10 cells were seeded in 96-well plates with a density of 0.4 million cells per well in 100 μl fresh media. Compounds were then added to the assay plates with a final top concentration of 1 to 10 μM in a 1:3 dilution series with total of 9 doses. The assay plates were then incubated for 4 to 24 hours at 37° C. under […]. The assay plates were then centrifuged for 5 minutes, and the cell pellets were treated with 100 μl/well RIPA lysis buffer (Boston Bioproducts, BP-115D) with protease and phosphatase inhibitors (Roche, 05892791001 and 04906837001). To prepare MSD assay plates (MSD, L15XA), the plates were coated with the capture antibody (Santa Cruz Biotechnology, SC-5271) in PBS, at 40 μl/well. The plates were then incubated overnight at 4° C., washed 3 times with 150 μl/well TBST buffer (Cell Signaling Technology, 9997S) and blocked with 150 μl/well blocking buffer (MSD, R93BA-4). Cell lysates were then added to MSD assay plates and the plates were incubated at room temperature for 1 hour. The plates were then washed 3 times with 150 μl/well TBST buffer and 25 μl/well primary detection antibody (Cell Signaling Technology, #9312). The assay plates were then incubated at room temperature for 1 hour, washed 3 times with 150 μl/well TBST buffer, and 25 μl/well secondary detection antibody, SULFO-TAG anti-rabbit antibody (MSD, R32AB-1) were added. The assay plates were then incubated at room temperature for 1 hour, washed 3 times with 150 μl/well TB ST buffer, and 150 μl/well MSD reading buffer (MSD, R92TC-2) were added. The plates were then analyzed by an MSD reader. The data was analyzed by GraphPad Prism and the dose dependent TYK2 degradation was fit using the four-parameter inhibitor vs. response nonlinear regression.
The letter codes for TYK2 DC50 include: A (<1 nM); B (i to <10 nM); C (10 to 100 nM); D (>100 nM); and E (not tested). The letter codes for TYK2 Dmax % include: A (>90%); B (90 to >75%); C (75 to 50%); D (<50%); and E (not tested).

[1] = TYK2 degradation in OCI-LY10 cells

T1 sequence (P29597 whole entry): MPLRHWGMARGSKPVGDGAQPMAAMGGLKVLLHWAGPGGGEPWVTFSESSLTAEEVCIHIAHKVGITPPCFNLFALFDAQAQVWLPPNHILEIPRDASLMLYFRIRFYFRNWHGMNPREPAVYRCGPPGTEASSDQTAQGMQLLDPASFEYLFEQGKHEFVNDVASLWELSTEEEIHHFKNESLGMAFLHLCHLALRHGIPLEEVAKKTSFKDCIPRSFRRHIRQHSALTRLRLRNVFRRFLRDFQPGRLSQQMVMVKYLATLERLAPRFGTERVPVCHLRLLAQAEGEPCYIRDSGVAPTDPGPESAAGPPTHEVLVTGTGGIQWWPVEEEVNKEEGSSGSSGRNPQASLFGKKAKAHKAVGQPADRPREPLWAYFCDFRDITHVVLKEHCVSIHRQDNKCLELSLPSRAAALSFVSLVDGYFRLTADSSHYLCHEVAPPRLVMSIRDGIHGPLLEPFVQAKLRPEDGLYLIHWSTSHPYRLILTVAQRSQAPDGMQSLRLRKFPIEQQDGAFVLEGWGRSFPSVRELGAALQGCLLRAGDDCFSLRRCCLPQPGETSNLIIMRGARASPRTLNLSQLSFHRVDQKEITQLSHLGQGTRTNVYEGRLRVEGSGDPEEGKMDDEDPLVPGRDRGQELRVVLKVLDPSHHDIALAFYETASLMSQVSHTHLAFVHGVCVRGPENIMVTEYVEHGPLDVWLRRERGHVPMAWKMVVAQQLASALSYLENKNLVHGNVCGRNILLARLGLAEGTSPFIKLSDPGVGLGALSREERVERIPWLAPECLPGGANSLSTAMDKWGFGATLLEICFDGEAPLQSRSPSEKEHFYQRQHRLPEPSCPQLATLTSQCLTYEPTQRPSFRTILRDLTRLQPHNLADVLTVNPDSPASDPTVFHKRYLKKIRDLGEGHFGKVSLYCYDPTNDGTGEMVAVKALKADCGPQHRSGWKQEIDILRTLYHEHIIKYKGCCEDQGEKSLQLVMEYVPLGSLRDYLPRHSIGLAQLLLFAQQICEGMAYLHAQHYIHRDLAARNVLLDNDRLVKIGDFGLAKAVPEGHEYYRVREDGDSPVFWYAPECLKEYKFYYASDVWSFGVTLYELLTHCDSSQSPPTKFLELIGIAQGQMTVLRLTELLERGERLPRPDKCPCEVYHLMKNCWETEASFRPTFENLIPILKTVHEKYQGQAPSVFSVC

CNc1cc(N2CCc3c(-c4ccc(CN5CCC6(CCN(C(=O)c7cc(F)c(C)c(N8CCC(=O)NC8=O)c7)CC6)C(F)(F)C5)cn4)cccc32)nn2c(C(=O)N[C@@H]3C[C@@H]3F)cnc12 [I-657]
TYK2 MSD OCI-LY10 Dmax % (OCI-LY10 cells): A (A (>90%)) | DC50 (OCI-LY10 cells): < 1 nM

CNc1cc(N2CCc3c(-c4ccc(CN5CCC6(CC5)CC(COc5ccc(Cl)c(C7CCC(=O)NC7=O)c5)C6)cn4)cccc32)nn2c(C(=O)N[C@@H]3C[C@@H]3F)cnc12 (some centres unmarked) [I-461]
TYK2 MSD OCI-LY10 Dmax % (OCI-LY10 cells): D (D (<50%)) | DC50 (OCI-LY10 cells): < 10 nM

CNc1cc(N2CCc3c(C#CCN4CCC(N5CCC(C6CCN(c7ccc8c(c7)n(C)c(=O)n8C7CCC(=O)NC7=O)CC6)CC5)C(F)(F)C4)cccc32)nn2c(C(=O)N[C@@H]3C[C@@H]3F)cnc12 (some centres unmarked) [I-467]
TYK2 MSD OCI-LY10 Dmax % (OCI-LY10 cells): B (B (90 to >75%)) | DC50 (OCI-LY10 cells): < 10 nM

CNc1cc(N2CCc3c(-c4ccc(CN5CCC6(CCC(Oc7ccc(Cl)c(N8CCC(=O)NC8=O)c7)CC6)C(F)(F)C5)cn4)cccc32)nn2c(C(=O)NC3CCC3OC)cnc12 (centres unmarked) [I-1010]
TYK2 MSD OCI-LY10 Dmax % [1]: B (B (90 to >75%)) | DC50 [1]: < 10 nM

CNc1cc(-c2cn(CC3CCN(C4CCN(C(=O)c5ccc(Cl)c(N6CCC(=O)NC6=O)c5)CC4)CC3)c3ccccc23)nn2c(C(=O)N[C@@H]3C[C@@H]3F)cnc12 [I-768]
TYK2 MSD OCI-LY10 Dmax % (OCI-LY10 cells): D (D (<50%)) | DC50 (OCI-LY10 cells): > 100 nM

CNc1cc(N2CCc3c(CN4CCC(N5CC6(CCN(C(=O)c7cc(C)c(Cl)c(N8CCC(=O)NC8=O)c7)CC6)C5)C(F)(F)C4)cccc32)nn2c(C(=O)N[C@@H]3CC[C@H]3OC)cnc12 (some centres unmarked) [I-1073]
TYK2 MSD OCI-LY10 Dmax % [1]: A (A (>90%)) | DC50 [1]: < 1 nM

CNc1cc(N2CCc3c(N4CCC(CN5CCC6(CC5)CCN(c5ccc(Cl)c(C7CCC(=O)NC7=O)c5)CC6)CC4)cccc32)nn2c(C(=O)N[C@@H]3C[C@@H]3F)cnc12 (some centres unmarked) [I-513]
TYK2 MSD OCI-LY10 Dmax % (OCI-LY10 cells): D (D (<50%)) | DC50 (OCI-LY10 cells): 10 to 100 nM

CNc1cc(N2CCc3c(-c4ncc(C(=O)N5CC6(CCN(C(=O)c7cc(C)c(Cl)c(N8CCC(=O)NC8=O)c7)CC6)C5)cc4F)cccc32)nn2c(C(=O)N[C@@H]3CC[C@H]3OC)cnc12 [I-1140]
TYK2 MSD OCI-LY10 Dmax % [1]: A (A (>90%)) | DC50 [1]: < 1 nM

CNc1cc(N2CCc3c(-c4ccc(CN5CCC6(CCN(C(=O)c7ccc(Cl)c(N8CCC(=O)NC8=O)c7)CC6)C(F)(F)C5)cn4)cccc32)nn2c(C(=O)NC34CC(C3)C4)cnc12 [I-851]
TYK2 MSD OCI-LY10 Dmax % [1]: C (C (75 to 50%)) | DC50 [1]: 10 to 100 nM

CNc1cc(N2CCc3c(-c4ccc(CN5CCC(N6CCC7(CC6)CN(c6cccc8c6n(C)c(=O)n8C6CCC(=O)NC6=O)C7)C(F)(F)C5)cn4)cccc32)nn2c(C(=O)N[C@@H]3C[C@@H]3F)cnc12 (some centres unmarked) [I-280]
TYK2 MSD OCI-LY10 Dmax % [1]: B (B (90 to >75%)) | DC50 [1]: < 10 nM

CNc1cc(N2CCc3c(-c4ccc(N5CCC6(CCN(Cc7ccc(N8CCC(=O)NC8=O)c(Cl)c7)CC6)CC5)cn4)cccc32)nn2c(C(=O)N[C@@H]3C[C@@H]3F)cnc12 [I-870]
TYK2 MSD OCI-LY10 Dmax % [1]: C (C (75 to 50%)) | DC50 [1]: 10 to 100 nM

CNc1cc(N2CCc3c(-c4cc(C)c(CN5CC6(CCN(C(=O)c7cc(C)c(Cl)c(N8CCC(=O)NC8=O)c7)CC6(F)F)C5)cn4)cccc32)nn2c(C(=O)N[C@@H]3C[C@@H]3F)cnc12 [I-958]
TYK2 MSD OCI-LY10 Dmax % [1]: A (A (>90%)) | DC50 [1]: < 1 nM

CNc1cc(N2CCc3c(-c4ncc(CN5CC6(CCN(C(=O)c7cc(C)c(C)c(N8CCC(=O)NC8=O)c7)CC6(F)F)C5)cc4F)cccc32)nn2c(C(=O)NC3CCC3OC)cnc12 (centres unmarked) [I-993]
TYK2 MSD OCI-LY10 Dmax % [1]: A (A (>90%)) | DC50 [1]: < 1 nM

CNc1cc(N2CCc3c(-c4cnc(CN5CC6(CCN(C(=O)c7ccc(Cl)c(N8CCC(=O)NC8=O)c7)CC6)C5)cn4)cccc32)nn2c(C(=O)N[C@@H]3C[C@@H]3F)cnc12 [I-466]
TYK2 MSD OCI-LY10 Dmax % (OCI-LY10 cells): A (A (>90%)) | DC50 (OCI-LY10 cells): < 1 nM

CNc1cc(N2CCc3c2cccc3C23CC(CN4CCC(N5CC(N6CCN(c7cccc8c7n(C)c(=O)n8C7CCC(=O)NC7=O)CC6)C5)C(F)(F)C4)(C2)C3)nn2c(C(=O)N[C@@H]3C[C@@H]3F)cnc12 (some centres unmarked) [I-429]
TYK2 MSD OCI-LY10 Dmax % (OCI-LY10 cells): B (B (90 to >75%)) | DC50 (OCI-LY10 cells): < 10 nM

CNc1cc(N2CCc3c(-c4ccc(CN5CCN(Cc6ccc(NC7CCC(=O)NC7=O)c(Cl)c6)CC5)cn4)cccc32)nn2c(C(=O)N[C@@H]3C[C@@H]3F)cnc12 (some centres unmarked) [I-389]
TYK2 MSD OCI-LY10 Dmax % [1]: C (C (75 to 50%)) | DC50 [1]: < 10 nM

CNc1cc(N2CCc3c(-c4ccc(CN5CC6(CCN(C(=O)c7cnc(OC)c(N8CCC(=O)NC8=O)c7)CC6)C5)cn4)cccc32)nn2c(C(=O)N[C@@H]3C[C@@H]3F)cnc12 [I-352]
TYK2 MSD OCI-LY10 Dmax % [1]: B (B (90 to >75%)) | DC50 [1]: < 1 nM

CNc1cc(N2CCc3c(CN4CCC(N5CCC6(CCN(C(=O)c7cc(F)c(Cl)c(N8CCC(=O)NC8=O)c7)CC6)CC5)C(F)(F)C4)cccc32)nn2c(C(=O)N[C@@H]3C[C@@H]3F)cnc12 (some centres unmarked) [I-712]
TYK2 MSD OCI-LY10 Dmax % (OCI-LY10 cells): B (B (90 to >75%)) | DC50 (OCI-LY10 cells): < 1 nM

CNc1cc(N2CCc3c(CN4CCC(N5CCC(OCC#Cc6cccc7c6n(C)c(=O)n7C6CCC(=O)NC6=O)CC5)C(F)(F)C4)cccc32)nn2c(C(=O)N[C@@H]3C[C@@H]3F)cnc12 (some centres unmarked) [I-372]
TYK2 MSD OCI-LY10 Dmax % [1]: D (D (<50%)) | DC50 [1]: < 10 nM

CNc1cc(N2CCc3c(-c4ncc(CN5CC6(CCN(C(=O)c7ccc(Cl)c(N8CCC(=O)NC8=O)c7)CC6(F)F)C5)cc4F)cccc32)nn2c(C(=O)N[C@@H]3C[C@@H]3F)cnc12 [I-1023]
TYK2 MSD OCI-LY10 Dmax % [1]: A (A (>90%)) | DC50 [1]: < 1 nM

CNc1cc(N2CCc3c(N4CCC(CN5CC6(CCN(Cc7ccc(Cl)c(N8CCC(=O)NC8=O)c7)CC6(F)F)C5)CC4)cccc32)nn2c(C(=O)N[C@@H]3C[C@@H]3F)cnc12 [I-899]
TYK2 MSD OCI-LY10 Dmax % [1]: D (D (<50%)) | DC50 [1]: > 100 nM

CNc1cc(N2CCc3c(CN4CCC(N5CCC6(CCN(C(=O)c7cc(N8CCC(=O)NC8=O)c(Cl)cc7C)CC6)CC5)C(F)(F)C4)cccc32)nn2c(C(=O)N[C@@H]3C[C@@H]3F)cnc12 (some centres unmarked) [I-765]
TYK2 MSD OCI-LY10 Dmax % (OCI-LY10 cells): B (B (90 to >75%)) | DC50 (OCI-LY10 cells): < 10 nM

CNc1cc(N2CCc3c(-c4ccc(N5CCC6(CCN(C(=O)c7ccc(N8CCC(=O)NC8=O)c(Cl)c7)CC6)CC5)cn4)cccc32)nn2c(C(=O)N[C@@H]3C[C@@H]3F)cnc12 [I-885]
TYK2 MSD OCI-LY10 Dmax % [1]: C (C (75 to 50%)) | DC50 [1]: 10 to 100 nM

CNc1cc(N2CCc3c(-c4ccc(CN5CCC(N6CCC7(CCN(c8cccc9c8n(C)c(=O)n9C8CCC(=O)NC8=O)CC7)CC6)C(F)(F)C5)cn4)cccc32)nn2c(C(=O)N[C@@H]3C[C@@H]3F)cnc12 (some centres unmarked) [I-281]
TYK2 MSD OCI-LY10 Dmax % [1]: C (C (75 to 50%)) | DC50 [1]: < 10 nM

CNc1cc(N2CCc3c(-c4ncc(CN5CC6(CCN(C(=O)c7ccc(Cl)c(N8CCC(=O)NC8=O)c7)CC6)C5)cn4)cccc32)nn2c(C(=O)N[C@@H]3C[C@@H]3F)cnc12 [I-250]
TYK2 MSD OCI-LY10 Dmax % [1]: B (B (90 to >75%)) | DC50 [1]: < 1 nM

CNc1cc(N2CCc3c(N4CCN(C5CCC6(CC5)CCN(c5ccc7c(c5)n(C)c(=O)n7C5CCC(=O)NC5=O)CC6)CC4)cccc32)nn2c(C(=O)NC3CC3)cnc12 (centres unmarked) [I-31]
TYK2 MSD OCI-LY10 Dmax % [1]: D (D (<50%)) | DC50 [1]: < 10 nM

CNc1cc(N2CCc3c(-c4cc(CN5CCC(c6ccc7c(c6)n(C)c(=O)n7C6CCC(=O)NC6=O)C(F)(F)C5)ccn4)cccc32)nn2c(C(=O)NC3CC3)cnc12 (centres unmarked) [I-4]
TYK2 MSD OCI-LY10 Dmax % [1]: D (D (<50%)) | DC50 [1]: > 100 nM

CNc1cc(N2CCc3c(CN4CC[C@H](N5CCC6(CCN(C(=O)c7cc(N8CCC(=O)NC8=O)c(Cl)cn7)CC6)CC5)C(F)(F)C4)cc(F)cc32)nn2c(C(=O)N[C@@H]3CC[C@H]3OC)cnc12 [I-1148]
TYK2 MSD OCI-LY10 Dmax % [1]: B (B (90 to >75%)) | DC50 [1]: < 1 nM
